Experimental findings from PubChem BioAssay (NCI) are described below.

Test systems include HCT-15 colon; HL-60(TB) leukemia; HOP-62 NSCLC; M14 melanoma; MCF7 breast; MDA-MB-435; NCI-H23 lung; RXF 393 renal; SR leukemia; T-47D breast; NCI-H226 lung.
What all share (assay): NCI tumour cell line growth inhibition, 48 h

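Dose response: 5 concentrations. Exposure: 48 h. Format: 96-well plates. Endpoint: linear interpolation; highest concentration if not reached. TGI is the concentration that stops growth completely.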 Some results are limits rather than exact numbers.

On to `Fc1cccc(F)c1C1SCc2nc3ccc(Cl)cc3n21` (centres undefined), for which the TGI in the experiment with HCT-15 colon, in the experiment on HL-60(TB) leukemia, in the experiment with HOP-62 NSCLC, in the experiment on M14 melanoma, with MCF7 breast and in the experiment on MDA-MB-435 was > 100 µM in each case. In addition, the TGI with NCI-H23 lung, with RXF 393 renal, in the experiment on SR leukemia and with T-47D breast was > 100 µM in each case.

`Cn1c(N/N=C/c2ccccc2)nc(-c2ccc([N+](=O)[O-])cc2)c(C#N)c1=O`: the TGI with HCT-15 colon was > 100 µM; in the experiment on HL-60(TB) leukemia, 48.3 µM; with HOP-62 NSCLC, > 100 µM; in the experiment on M14 melanoma it was > 100 µM; in the experiment with MCF7 breast it was > 100 µM; in the experiment on MDA-MB-435 it was > 100 µM. Further, the TGI in the experiment with NCI-H23 lung, with RXF 393 renal, in the experiment on SR leukemia and in the experiment with T-47D breast was > 100 µM throughout.

Turning to `COC(=O)c1ccc(Nc2nc3nc[nH]c3c(=O)[nH]2)cc1`, the TGI in the experiment on HCT-15 colon, with HL-60(TB) leukemia, in the experiment on HOP-62 NSCLC, with M14 melanoma, in the experiment with MCF7 breast and in the experiment with MDA-MB-435 was > 100 µM in each case. Moreover, the TGI in the experiment on NCI-H226 lung, in the experiment with NCI-H23 lung, in the experiment with SR leukemia and in the experiment on T-47D breast was > 100 µM throughout.

Consider `CC1=NC(=Cc2ccc([N+](=O)[O-])cc2)C(=O)N1n1c(-c2ccccc2)nc2ccccc2c1=O`, for which the TGI in the experiment on HCT-15 colon is > 100 µM; in the experiment with HL-60(TB) leukemia, 88.4 µM; with HOP-62 NSCLC, > 100 µM; in the experiment on M14 melanoma, > 100 µM; with MCF7 breast, > 100 µM; with MDA-MB-435, > 100 µM. Besides, the TGI in the experiment on NCI-H226 lung is > 100 µM; in the experiment with NCI-H23 lung, 81.2 µM; with SR leukemia it was > 100 µM; in the experiment with T-47D breast, > 100 µM.

`CSc1c(C(=O)Nc2ccc(Cl)cc2)c(N)n(N)c(=O)c1C#N`: the TGI in the experiment on HCT-15 colon, in the experiment with HL-60(TB) leukemia, in the experiment on M14 melanoma, in the experiment on MCF7 breast, in the experiment with MDA-MB-435 and with NCI-H226 lung was > 100 µM each time. The TGI in the experiment with NCI-H23 lung, with RXF 393 renal, with SR leukemia and with T-47D breast was > 100 µM throughout.

On to `CCc1ccccc1NNc1cc(=O)[nH]c(=O)[nH]1`, for which the TGI in the experiment with HL-60(TB) leukemia was > 100 µM; in the experiment on HOP-62 NSCLC, 35.1 µM; with M14 melanoma, 35.1 µM; in the experiment with MCF7 breast, 39.1 µM; in the experiment on MDA-MB-435 it was 34.1 µM; with NCI-H226 lung it was 35 µM. For the same compound, the TGI in the experiment on NCI-H23 lung is > 100 µM; in the experiment on RXF 393 renal, 40.1 µM; in the experiment with SR leukemia, > 100 µM; in the experiment on T-47D breast, 37.7 µM.

Regarding `S=C(Nc1ccc2cn[nH]c2c1)Nc1ccc2cn[nH]c2c1`, the TGI with HCT-15 colon, in the experiment with HOP-62 NSCLC, in the experiment with M14 melanoma, in the experiment on MCF7 breast, in the experiment with MDA-MB-435 and with NCI-H226 lung was > 100 µM throughout. Moreover, the TGI in the experiment with NCI-H23 lung, with RXF 393 renal, with SR leukemia and in the experiment on T-47D breast was > 100 µM throughout.

As for `C[N+]1(CCN[N+]2(C)CCCCC2)CCc2ccccc2C1` (centres undefined), the TGI in the experiment with HCT-15 colon, in the experiment on HOP-62 NSCLC, with M14 melanoma, in the experiment on MCF7 breast, with MDA-MB-435 and with NCI-H226 lung was > 100 µM throughout. The TGI in the experiment with NCI-H23 lung, in the experiment on RXF 393 renal, with SR leukemia and in the experiment on T-47D breast was > 100 µM in each case.

Consider `CCOC(=O)Cc1nc2c(N)ncnc2n1C1OC(COC(C)=O)C(OC(C)=O)C1OC(C)=O` (centres undefined), for which the TGI in the experiment on HCT-15 colon, with HL-60(TB) leukemia, in the experiment with HOP-62 NSCLC, in the experiment on M14 melanoma, with MCF7 breast and in the experiment on MDA-MB-435 was > 100 µM throughout. The TGI in the experiment with NCI-H226 lung, with NCI-H23 lung, with SR leukemia and in the experiment on T-47D breast was > 100 µM each time.

For `CC(=O)Oc1ccc(/C=C/C(=O)O[C@@H](C(=O)O)[C@@H](OC(=O)/C=C/c2ccc(OC(C)=O)c(OC(C)=O)c2)C(=O)O)cc1OC(C)=O`, the TGI with HCT-15 colon, in the experiment on HOP-62 NSCLC, in the experiment with M14 melanoma, in the experiment with MCF7 breast, in the experiment with MDA-MB-435 and in the experiment on NCI-H23 lung was > 100 µM each time. In addition, the TGI in the experiment with RXF 393 renal, in the experiment with SR leukemia and in the experiment with T-47D breast was > 100 µM in each case.

As to `CC(C)(C)N(Cc1ccc2c(c1)OCO2)C(=O)/C=C\Sc1ccccc1`, the TGI with HCT-15 colon, in the experiment with HL-60(TB) leukemia, in the experiment on HOP-62 NSCLC, in the experiment on M14 melanoma, with MCF7 breast and with MDA-MB-435 was > 100 µM in each case. The TGI in the experiment on NCI-H226 lung, in the experiment on NCI-H23 lung, with SR leukemia and in the experiment on T-47D breast was > 100 µM in each case.

For `CC(=O)N1CCn2c1nc1cc(Cl)ccc12`, the TGI is > 100 µM in the experiment on HCT-15 colon; > 100 µM in the experiment on HL-60(TB) leukemia; 40 µM with HOP-62 NSCLC; > 100 µM in the experiment with M14 melanoma; > 100 µM in the experiment with MCF7 breast; > 100 µM with MDA-MB-435. Besides, the TGI in the experiment with NCI-H226 lung was > 100 µM; in the experiment on RXF 393 renal it was 53.9 µM; with SR leukemia, > 100 µM; in the experiment on T-47D breast, 51.4 µM.

In the case of `C(=C\N1CCCCC1)/c1nnnn1-c1ccccc1`, the TGI is > 100 µM in the experiment on HCT-15 colon; 37.7 µM with HL-60(TB) leukemia; > 100 µM in the experiment with HOP-62 NSCLC; 38.5 µM in the experiment with M14 melanoma; 66.1 µM in the experiment on MDA-MB-435; > 100 µM in the experiment with NCI-H226 lung. Also, the TGI in the experiment on NCI-H23 lung was > 100 µM; with RXF 393 renal it was 56.6 µM; in the experiment with SR leukemia, 55 µM; in the experiment with T-47D breast, 76.3 µM.

As for `C[C@H]1S[C@H](c2c(Cl)cccc2Cl)N2Cc3ccccc3N=C12`, the TGI with HCT-15 colon is 33.7 µM; in the experiment on HL-60(TB) leukemia it was > 100 µM; in the experiment with HOP-62 NSCLC, 32.6 µM; in the experiment with M14 melanoma it was 32.4 µM; with MCF7 breast, 42.1 µM; in the experiment on MDA-MB-435, > 100 µM. Further, the TGI in the experiment on NCI-H23 lung is 28.8 µM; with RXF 393 renal, 30.4 µM; in the experiment with SR leukemia, > 100 µM; in the experiment on T-47D breast it was 36.4 µM.
